For series [1] the following is noted: thromboembolism patients, CAPRIE trial; cited from earlier work.
The conditions of series [2]: clopidogrel combined with aspirin, cited from earlier work.
The conditions of series [3]: combination use of aspirin and clopidogrel, cited from earlier work.
A further series has as its system gastric mucosa. Put plainly: influence of drugs upon gastric mucosa in normal guinea pigs. In kind it is in vivo, guinea pig. As to conditions: for gastric mucosal lesion (length): 3 hours after administration. As for the experimental part:
Examination of the influence of drugs exerting upon gastric mucosa was carried out using normal guinea pigs. Using 0.5% methyl cellulose solution as the vehicle, clopidogrel solution, aspirin suspension and Compound A suspension were prepared. […] Also, in the evaluation at the time of concomitant administration of clopidogrel with aspirin or Compound A, in addition to 3 mg/kg of clopidogrel, 300 mg/kg of aspirin was simultaneously administered in the aspirin concomitant use group, and 100 mg/kg of Compound A in the Compound A concomitant use group. After 3 hours of the administration, each guinea pig was sacrificed by deep anesthesia with carbon dioxide, and the stomach was quickly removed. The gullet part of the extracted stomach was ligated, 15 ml of 4% neutral buffered formalin solution was injected from the pylorus part, and then light fixation was carried out by immersing in the same solution for about 1 hour after ligating the pylorus part. Thereafter, the stomach was cut open along the greater curvature of stomach, and the length (mm) of gastric mucosal lesion was measured using a stereoscopic microscope. Statistical analysis between respective groups was performed by using Wilcoxon rank sum test.

Series [4] relates to iron chloride-induced thrombus (abdominal aorta). Put plainly: ferric chloride-induced thrombosis model in guinea pigs. In kind it is in vivo, guinea pig. The following applies: for total protein content of thrombi, comparison with control (vehicle administration group): single drug, Student's t-test; for total protein content of thrombi, concomitant administration compared with single administration groups: oral. As for the experimental part: Verification of anti-thrombotic action was carried out using a ferric chloride-induced thrombosis model in guinea pigs, by partially modifying the experiment described in “Thrombosis Research” (1990, vol. 60, p. 269-280). Using 0.5% methyl cellulose solution as the vehicle, clopidogrel solution, aspirin suspension and Compound A suspension were prepared. […] Thrombus was induced by the following procedure. Each guinea pig was laparotomized while under pentobarbital anesthesia, and abdominal aorta was carefully detached from the surrounding tissues. […] The filter paper was removed 10 minutes thereafter, followed by 45 minutes of standing under subdued light. Both ends of the injured part of the detached blood vessel were closed with clips, and inside thereof was cut out using scissors to collect the blood vessel. By cutting open the thus collected blood vessel vertically, the thrombi formed in the blood vessel were taken out using a pair of tweezers and dissolved in 0.5 mol/1 of NaOH. Protein concentration was determined using DC protein assay kit (mfd. by BIO-RAD Laboratories) and in accordance with the protocols. Using total protein content of the formed thrombi as the index of anti-thrombotic effect, Statistical analysis between respective groups was performed by using Student's t-test.

A further series has as its target T1, COX-1 (Cavia porcellus, UniProt H0V9X9).
T1 construct: from tissue; host or cells: whole blood from the abdominal aorta of male Hartley guinea pigs
T1 sequence (H0V9X9 25-553): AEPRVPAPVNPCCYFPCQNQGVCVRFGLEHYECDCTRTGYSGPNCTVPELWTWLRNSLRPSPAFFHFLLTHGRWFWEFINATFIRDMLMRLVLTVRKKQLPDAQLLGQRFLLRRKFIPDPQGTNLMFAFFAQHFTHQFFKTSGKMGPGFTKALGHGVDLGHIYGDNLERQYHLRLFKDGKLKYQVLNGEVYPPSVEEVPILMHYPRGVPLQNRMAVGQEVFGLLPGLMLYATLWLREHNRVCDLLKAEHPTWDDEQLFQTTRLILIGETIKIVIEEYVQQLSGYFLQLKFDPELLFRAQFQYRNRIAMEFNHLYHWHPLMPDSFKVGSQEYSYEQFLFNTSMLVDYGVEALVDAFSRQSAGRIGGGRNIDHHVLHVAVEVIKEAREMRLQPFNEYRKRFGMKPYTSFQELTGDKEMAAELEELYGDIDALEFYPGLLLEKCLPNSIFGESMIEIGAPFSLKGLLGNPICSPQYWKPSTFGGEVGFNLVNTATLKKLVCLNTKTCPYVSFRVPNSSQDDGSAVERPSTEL
Put plainly: coagulation-induced Thromboxane B2 (TXB2) production inhibition using guinea pig whole blood after oral administration. In kind it is in vivo. The following applies: concomitant use with 1 mg/kg of clopidogrel, read-out: inhibitory rate of coagulation-induced TXB2 production relative to the vehicle group. As for the experimental part:
Examination on the selectivity of inhibitory effect on Cyclooxygenase (COX)-½ was carried out based on, as indexes, the coagulation-induced Thromboxane B2 (TXB2) production inhibition (COX-1 inhibition) and the LPS-induced Prostaglandin E2 (PGE2) production inhibition using guinea pig whole blood. As the vehicle, 0.5% methyl cellulose solution was used. By dissolving clopidogrel and suspending aspirin and Compound A therein, clopidogrel was orally administered 2 hours before the blood collection, and aspirin and Compound A 1 hour before thereof, to male Hartley guinea pigs which had been subjected to fasting (drug administered groups). On the other hand, as the vehicle administration group, clopidogrel was orally administered 2 hours before the blood collection, and the vehicle 1 hour before thereof. […] TXB2 concentration in the serum was measured using a TXB2 EIA Kit (mfd. by Cayman Chemicals). […] PGE2 concentration in the buffer was measured using a PGE2 EIA Kit (mfd. by Cayman Chemicals). Inhibitory rate of each of the TXB2 concentration and PGE2 concentration relative to the vehicle group was calculated using a calculation formula [100-(drug administration group concentration/solvent administration concentration)×100 (%)], and significant difference from the vehicle group was tested using Student's t-test.

The target in the next series is T2, COX-2 (Cavia porcellus, UniProt P70682).
T2 construct: The sodium citrate-added whole blood was mixed with LPS to a final concentration of 100 μg/ml, incubated at 37° C. for 24 hours; from tissue; host or cells: citrated whole blood of male Hartley guinea pigs, stimulated with LPS
T2 sequence (P70682 18-604): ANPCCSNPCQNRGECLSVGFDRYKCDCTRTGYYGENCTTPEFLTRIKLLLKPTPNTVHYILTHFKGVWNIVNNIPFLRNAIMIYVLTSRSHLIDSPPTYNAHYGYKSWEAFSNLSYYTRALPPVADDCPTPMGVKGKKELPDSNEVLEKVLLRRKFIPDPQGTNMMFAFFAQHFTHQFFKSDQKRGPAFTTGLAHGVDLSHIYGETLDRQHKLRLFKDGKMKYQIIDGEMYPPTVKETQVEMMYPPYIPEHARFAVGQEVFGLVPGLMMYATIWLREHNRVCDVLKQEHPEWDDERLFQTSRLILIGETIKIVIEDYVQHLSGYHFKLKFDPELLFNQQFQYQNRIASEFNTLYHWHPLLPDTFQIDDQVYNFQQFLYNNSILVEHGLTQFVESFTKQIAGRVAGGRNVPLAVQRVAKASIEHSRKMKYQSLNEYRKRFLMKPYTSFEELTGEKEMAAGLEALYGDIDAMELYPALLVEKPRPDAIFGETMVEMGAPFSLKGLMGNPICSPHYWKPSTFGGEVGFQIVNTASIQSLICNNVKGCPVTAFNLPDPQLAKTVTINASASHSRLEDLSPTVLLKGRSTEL
Put plainly: LPS-induced Prostaglandin E2 (PGE2) production inhibition using guinea pig whole blood after oral administration. In kind it is in vivo. As to conditions: read-out: inhibitory rate of LPS-induced PGE2 production relative to the vehicle group.

For series [5] the following is noted: cited from earlier work.

SMILES strings stand for the structures. Where two headings read alike, the source gives them in different places.

Description for COX-2: Examination on the selectivity of inhibitory effect on Cyclooxygenase (COX)-½ was carried out based on, as indexes, the coagulation-induced Thromboxane B2 (TXB2) production inhibition (COX-1 inhibition) and the LPS-induced Prostaglandin E2 (PGE2) production inhibition using guinea pig whole blood. As the vehicle, 0.5% methyl cellulose solution was used. […] On the other hand, as the vehicle administration group, clopidogrel was orally administered 2 hours before the blood collection, and the vehicle 1 hour before thereof. Each guinea pig was laparotomized while under ether anesthesia, 4 ml of blood was collected from the abdominal aorta, and 1 ml thereof was put into an anticoagulant-un-added tube and allowed to stand still and then 3 ml thereof was put into a tube charged with 300 μl of sodium citrate, followed by tipping mixing. […] PGE2 concentration in the buffer was measured using a PGE2 EIA Kit (mfd. by Cayman Chemicals). Inhibitory rate of each of the TXB2 concentration and PGE2 concentration relative to the vehicle group was calculated using a calculation formula [100-(drug administration group concentration/solvent administration concentration)×100 (%)], and significant difference from the vehicle group was tested using Student's t-test.

In the case of `COC(=O)[C@H](c1ccccc1Cl)N1CCc2sccc2C1` [clopidogrel, methyl (+)-(S)-2-(2-chlorophenyl)-2-(4,5,6,7-tetrahydrothieno[3,2-c]pyridin-5-yl)acetate], in series [1], the event onset ratio was 5.83 %/year and the “lowering of the event onset ratio based on aspirin” value is 8.7%. Also, the “reduction of event ratio in combination use group in comparison with the aspirin alone group” value in series [2] (non-ST increase ACS patients) was 20%. Besides, the “hemorrhagic side effects in the combination use group” value in series [2] is listed as “significantly increased”. Besides, in series [3] (low risk patients), the primary prevention effect result was “usefulness of the combination group was not found”. For the same molecule, the “secondary thrombotic event inhibition effect” value in series [3] (patients of ischemic diseases) is “significant secondary thrombotic event inhibition effect”. Further, the “gastric mucosal lesion (length)” value with gastric mucosa (100 mg/kg oral, single drug) is reported as “a clear action for gastric mucosa cannot be confirmed”. For the same molecule, in series [4] (clopidogrel 1 mg/kg orally 2 hours before thrombus induction), the “total protein content of thrombi, comparison with control (vehicle administration group)” value is recorded as “statistically significant difference”.

In the case of `COc1ccc(-c2nc(OC)nn2-c2ccc(OC)cc2)cc1` [Compound A, 3-methoxy-1,5-bis(4-methoxyphenyl)-1H-1,2,4-triazole], the inhibition at 3 mg/kg at COX-1 (3 mg/kg Compound A orally) was determined as 82.1%; at COX-2 (3 mg/kg Compound A orally, concomitant use with 1 mg/kg of clopidogrel), 10.1%. Further, the “gastric mucosal lesion (length)” value in the series on gastric mucosa (100 mg/kg oral, single drug) is recorded as “a clear action for gastric mucosa cannot be confirmed”; with gastric mucosa (Compound A 100 mg/kg concomitantly with clopidogrel 3 mg/kg, oral), “a clear action for gastric mucosa cannot be confirmed”. Moreover, in series [4] (3 mg/kg Compound A + 1 mg/kg clopidogrel vs 300 mg/kg aspirin + 1 mg/kg clopidogrel), the “total protein content of thrombi, compared with concomitant administration group of clopidogrel and aspirin” value was “statistically significant difference from a concomitant administration group of clopidogrel and aspirin”. The “total protein content of thrombi, concomitant administration compared with single administration groups” value in series [4] (3 mg/kg Compound A concomitantly with 1 mg/kg clopidogrel) is “statistically significant difference from the clopidogrel single administration group (CLO 1) and Compound A single administration group (Comp A 3)”. Moreover, the “total protein content of thrombi, comparison with control (vehicle administration group)” value in series [4] (Compound A 3 mg/kg orally 1 hour before thrombus induction) is reported as “statistically significant difference”.

On to `CC(=O)Oc1ccccc1C(=O)O` [aspirin], for which the values for the inhibition at 300 mg/kg on COX-1 (300 mg/kg aspirin orally) and at COX-2 were 100% and 90.4%, respectively. Besides, in series [1], the event onset ratio is listed as 5.32 %/year. Further, the “gastric mucosal lesion (length)” value in the series with gastric mucosa (300 mg/kg oral, single drug) was “Gastric mucosal damage was clearly formed”; in the series on gastric mucosa (aspirin 300 mg/kg concomitantly with clopidogrel 3 mg/kg, oral) it was “Gastric mucosal damage was also clearly induced”. Besides, the “gastric mucosal damage at concomitant administration with clopidogrel compared with aspirin alone” value in the series with gastric mucosa (aspirin 300 mg/kg + clopidogrel 3 mg/kg vs aspirin 300 mg/kg alone) is “becomes worse”. Also, the “total protein content of thrombi, concomitant administration compared with single administration groups” value in series [4] (300 mg/kg aspirin concomitantly with 1 mg/kg clopidogrel) is on record as “significant difference from the clopidogrel single administration group (CLO 1), but a significant difference was not found in comparison with the aspirin single administration group (ASA 300)”. The “total protein content of thrombi, comparison with control (vehicle administration group)” value in series [4] (aspirin 300 mg/kg orally 1 hour before thrombus induction) is listed as “statistically significant difference”. In addition, the event inhibition ratio in series [5] (75 mg or less, meta-analysis) is 13%; in series [5] (administration of from 75 to 150 mg, meta-analysis), 32%; in series [5] (administration of from 160 to 325 mg, meta-analysis), 26%; in series [5] (administration of from 500 to 1500 mg, meta-analysis) it was 19%; in series [5] (high risk patients, low dose aspirin) it was “about 25%”.

These data come from US20110034504A1, “AGENT FOR PREVENTING AND/OR TREATING VASCULAR DISEASES” (Astellas Pharma Inc., priority 2008, published 2011).
